{
  "source": "patent US20230044248A1",
  "about": "“COMBINED INHIBITION OF PD-1, TGFBeta AND ATM TOGETHER WITH RADIOTHERAPY FOR THE TREATMENT OF CANCER” (ARES TRADING S.A., priority 2019, published 2023)",
  "key": {"4T1 cells [1]": {"system": "4T1 cells", "assay": "Example 1: bintrafusp alfa, RT and Compound A in the 4T1 mammary tumor model", "assay_type": "in vivo, BALB/c mice", "conditions": "mice sacrificed at tumor volume ≈2000 mm^3; Compound A 100 mg/kg p.o. day 0-10 where given"}, "4T1 cells [2]": {"system": "4T1 cells", "assay": "Example 2: dosing schedule of Compound A in the triple combination, 4T1 mammary tumor model", "conditions": "dual combination without Compound A", "procedure": "BALB/c mice were inoculated intramuscularly (i.m.) with 0.5×10^5 4T1 cells (day −7) and treated (n=10 mice/group) with isotype control (400 μg i.v.; day 0, 2, 4)+vehicle control (0.2 mL, p.o., day 0-17), bintrafusp alfa (492 μg i.v.; day 0, 2, 4)+RT (8 Gy, day 0-3), or bintrafusp alfa+RT+Compound A (100 mg/kg, p.o, days 0-3, days 0-10, or day 0-17). Tumor volumes were measured twice weekly and presented as (A) mean±SEM or (B) individual tumor volumes. P-values were calculated by two-way RM ANOVA with Tukey's post-test. (C) For survival analysis, mice were sacrificed when tumor volumes reached ≈2000 mm^3 and median survival times were calculated.\nThe effect of different dosing schedules of Compound A on the antitumor activity of the triple combination therapy was evaluated in the 4T1 mammary tumor model. […]\n(§1) Tumor volumes were calculated with the following formula: tumor volume (mm^3)=tumor length×width×height×0.5236. Tumor growth inhibition (TGI) was calculated with the following formula: TGI (%)=[1−(Ti−T0)/(Vi−V0)]×100, where Ti is the average tumor volume (mm^3) of a treatment group on a given day, TO is the average tumor volume of the treatment group on the first day of treatment, Vi is the average tumor volume of the vehicle control group on the same day as Ti, and V0 is the average tumor volume of the vehicle control group on the first day of treatment. […]"}, "4T1 cells [3]": {"system": "4T1 cells", "assay": "Example 3: triple combination versus dual and monotherapy controls, 4T1 mammary tumor model", "conditions": "day 18", "procedure": "BALB/c mice were inoculated intramuscularly (i.m.) with 0.5×10^5 4T1 cells (day −7) and treated (n=10 mice/group) with isotype control (400 μg i.v.; day 0, 2, 4)+vehicle control (0.2 mL, p.o., day 0-4), bintrafusp alfa (492 μg i.v.; day 0, 2, 4)+vehicle control, RT (8 Gy, day 0-3)+isotype control+vehicle control, Compound A (100 mg/kg, p.o, days 0-4)+isotype control, bintrafusp alfa+RT, bintrafusp alfa+Compound A, RT+Compound A, or bintrafusp alfa+RT+Compound A. Tumor volumes were measured twice weekly and presented as (A) mean±SEM or (B) individual tumor volumes. P-values were calculated by two-way RM ANOVA with Tukey's post-test. (C) For survival analysis, mice were sacrificed when tumor volumes reached ≈2000 mm^3 and median survival times were calculated. […]\nas §1"}, "4T1 cells [4]": {"system": "4T1 cells", "assay": "Example 4: triple combination with various RT doses versus bintrafusp alfa+RT, 4T1 mammary tumor model", "conditions": "RT 8Gy, QDx4", "procedure": "Balb/c mice were inoculated with 4T1 cells (0.5×10^6) in the right thigh muscle (day −7). At day 0, when average tumor volumes reached 150 mm^3, mice were treated (n=10 mice/group) with isotype control (400 μg i.v.; Days 0, 2, 4), Bintrafusp alfa (492 μg/mouse i.v.; Days 0, 2, 4)+RT (8Gy, QDx4), or bintrafusp alfa+Compound A (100 mg/kg p.o., QDx4)+RT (8Gy or 6Gy or 4Gy or 2Gy, QDx4). Tumor volumes were measured twice weekly and presented as mean±SEM. P-values were calculated by two-way ANOVA with Sidack's or Tukey's post-test. P-values comparing median survival were calculated with the Log-rank (Mantel-Cox) test.\nTreatment was initiated on day 0 when average tumor volume reached ˜150 mm^3. Mice were sacrificed when tumor volumes reached ˜2500 mm^3. […]\nTumor volumes were calculated with the following formula: tumor volume (mm^3)=tumor length×width×height×0.5236.\nTo compare the percentage survival between different treatment groups, Kaplan-Meier survival curves were generated. Body weight was measured twice weekly and mice were sacrificed when their tumor volume exceeded 2,000 mm^3.\nStatistical analyses were performed using GraphPad Prism Software, version 8.0 or 8.0.1. […] A Kaplan-Meier plot was generated to show survival by treatment group and significance was assessed by log-rank (Mantel-Cox) test."}},
  "data": [
    {"substance": "bintrafusp alfa and RT: dual combination therapy of bintrafusp alfa with radiotherapy (RT)", "values": [
      {"measurement": "median survival", "setting": "4T1 cells [1]", "result": 26, "unit": "days"},
      {"measurement": "median survival", "setting": "4T1 cells [2]", "result": 26, "unit": "days"},
      {"measurement": "antitumor activity of dual combination therapy relative to the respective monotherapies", "setting": "4T1 cells [3]", "result": "enhanced antitumor activity"},
      {"measurement": "median survival", "setting": "4T1 cells [4]", "result": 26, "unit": "days"}
    ]}
  ]
}
